Test results as given in patent US9550796B2, “Pyrrolopyrrolone derivatives and their use as BET inhibitors” (NOVARTIS AG, priority 2013, dated 2017).

Legend:
[1] = test system: K-562; assay: Cell growth inhibition assay (CellTiter-Glo), K-562; type: cell-based, human; settings: K-562 cells, 4 days; for GI50: Homo sapiens, K562, 96 h, half-maximal growth inhibition; for K-562 TGI: total growth inhibition
Summary of the method: (§1)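 A separate day 0 plate allows cytotoxic and cytostatic effects to be distinguished: viable-cell ATP after 4-day compound treatment (top 10 μM, 3-fold steps) is expressed relative to it. DMSO-only wells count as 100% and medium-only wells as −100%.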

[2] = biological target: CREBBP (Homo sapiens (Human), UniProt Q92793); assay: AlphaScreen in-vitro binding assay for CREBBP; settings: 324 nM His-CREBBP (1081-1197), acetyl-histone H4 (AcK 5, 8, 12) peptide
CREBBP, sequence (Q92793 1081-1197): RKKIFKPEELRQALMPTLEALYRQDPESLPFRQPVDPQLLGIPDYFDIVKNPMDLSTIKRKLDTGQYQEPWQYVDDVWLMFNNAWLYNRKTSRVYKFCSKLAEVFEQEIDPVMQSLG
Summary of the method: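 IC50 values were derived by non-linear regression of percent inhibition across 8 compound concentrations. Protein was His-tagged CREBBP bromodomain (1081-1197), peptide acetyl-histone H4 (AcK 5, 8, 12), in HEPES pH 7.5 buffer. Read-out was AlphaScreen with Ni-chelate acceptor and streptavidin donor beads, 35 min at 30° C then 60 min at RT.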

[3] = biological target: BRD4 (Homo sapiens (Human), UniProt O60885); assay: TR-FRET in-vitro binding assay for BRD4; settings: 45 nM His-Brd4(44-477), acetyl-histone H4 (AcK 5, 8, 12, 16) peptide
Summary of the method: (§2)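 Incubation at 30° C lasted 35 min, followed by TR-FRET measurement; each compound was tested as 8 single-point concentrations.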

[4] = test system: THP-1; assay: Cell growth inhibition assay (CellTiter-Glo), THP-1; type: cell-based, human; settings: THP-1 cells, 4 days; for GI50: Homo sapiens, 96 h, half-maximal growth inhibition; for THP-1 TGI: total growth inhibition
Summary of the method: as §1

[5] = test system: MV-4-11; assay: Cell growth inhibition assay (CellTiter-Glo), MV-4-11; type: cell-based, human; settings: MV-4-11 cells, 4 days; for GI50: Homo sapiens, MV4-11, 96 h, half-maximal growth inhibition; for MV-4-11 TGI: total growth inhibition
Summary of the method: as §1

[6] = biological target: BRD2 (Homo sapiens (Human), UniProt P25440); assay: TR-FRET in-vitro binding assay for BRD2; settings: 45 nM His-Brd2(60-472), acetyl-histone H4 (AcK 5, 8, 12, 16) peptide
BRD2, sequence (P25440 60-472): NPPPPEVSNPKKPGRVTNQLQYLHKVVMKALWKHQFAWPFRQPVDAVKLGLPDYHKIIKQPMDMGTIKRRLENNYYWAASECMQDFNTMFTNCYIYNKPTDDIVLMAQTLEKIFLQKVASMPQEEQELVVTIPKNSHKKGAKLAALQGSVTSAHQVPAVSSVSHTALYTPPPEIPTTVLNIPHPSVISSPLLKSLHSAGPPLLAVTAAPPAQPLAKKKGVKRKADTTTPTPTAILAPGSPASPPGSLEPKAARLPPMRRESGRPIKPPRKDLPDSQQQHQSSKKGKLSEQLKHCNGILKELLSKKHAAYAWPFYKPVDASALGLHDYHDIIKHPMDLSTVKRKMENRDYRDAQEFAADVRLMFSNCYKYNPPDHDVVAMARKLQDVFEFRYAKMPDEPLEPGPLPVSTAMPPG
Experimental: TR-FRET In-Vitro Binding Assays for BRD2, BRD3, and BRD4: All assays were performed in 384-well microtiter plates. […] Liquid handling and incubation steps were done on an Innovadyne Nanodrop Express equipped with a robotic arm (Thermo CatX, Perkin Elmer/Caliper Twister II) and an incubator (Liconic STX40, Thermo Cytomat 2C450). The assay plates were prepared by addition of 50 nl per well of compound solution in 90% DMSO HummingBird nanodispenser (Zinsser Analytic). […] Reactions were incubated at 30° C. for 35 minutes. […] After 35 minutes incubation at 30° C., plates were measured in a Perkin Elmer EnVision multilabel reader. […] The stock solutions were stored at […] if not used immediately. For the test procedure the vials were defrosted and identified by a scanner whereby a working sheet was generated that guided the subsequent working steps. Compound dilutions were made in 96 well plates. This format enabled the assay of maximally […] at 8 concentrations (single points) including 4 reference compounds, if desired (known BET inhibitors from the prior art, for this and other assays of the type disclosed herein). The dilution protocol included the production of “pre-dilution plates”, “master plates” and “assay plates”. Polypropylene 96-well plates were used as pre-dilution plates. […] All dilution steps were done on a HamiltonSTAR robot. […] Identical “assay plates” were then prepared by pipetting 50 nL each of compound dilutions of the “master plates” into 384-well “assay plates” by means of a HummingBird 384-channel dispenser. These plates were used directly for the assay which was performed in a total volume of 13.55 μL.

[7] = biological target: BRD3 (Homo sapiens (Human), UniProt Q15059); assay: TR-FRET in-vitro binding assay for BRD3; settings: 45 nM His-Brd3(20-477), acetyl-histone H4 (AcK 5, 8, 12, 16) peptide
BRD3, sequence (Q15059 20-477): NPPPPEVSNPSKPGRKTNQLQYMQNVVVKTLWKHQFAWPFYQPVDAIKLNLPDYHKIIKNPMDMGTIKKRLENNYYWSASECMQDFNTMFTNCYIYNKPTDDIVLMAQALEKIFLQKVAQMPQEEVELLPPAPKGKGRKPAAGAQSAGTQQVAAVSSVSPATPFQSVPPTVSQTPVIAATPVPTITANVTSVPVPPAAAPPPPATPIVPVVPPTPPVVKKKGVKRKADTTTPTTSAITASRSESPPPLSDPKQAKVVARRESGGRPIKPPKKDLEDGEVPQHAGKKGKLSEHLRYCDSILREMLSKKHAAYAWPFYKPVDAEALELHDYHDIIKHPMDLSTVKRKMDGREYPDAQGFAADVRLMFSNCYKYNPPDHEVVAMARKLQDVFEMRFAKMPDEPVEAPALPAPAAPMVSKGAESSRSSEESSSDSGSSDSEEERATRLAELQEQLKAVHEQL
Summary of the method: as §2

Structure (SMILES) | GI50 [1] [nM] | IC50 [2] [µM] | IC50 [3] [nM] | GI50 [4] [nM] | GI50 [5] [nM] | IC50 [6] [nM] | IC50 [7] [nM] | K-562 TGI [1] [µM] | THP-1 TGI [4] [µM] | MV-4-11 TGI [5] [µM]
Cc1cn(C2CN(C)C2)c2c1C(=O)N(c1cc(C)c3nnn(C)c3n1)C2c1ccc(Cl)cc1 (stereo not drawn) [Example 20, 6-(4-chlorophenyl)-5-(3,7-dimethyl-3H-[1,2,3]triazolo[4,5-b]pyridin-5-yl)-3-methyl-1-(1-methylazetidin-3-yl)-5,6-dihydropyrrolo[3,4-b]pyrrol-4(1H)-one] | 63.4 | > 37 | 16 | 12.9 | 7.89 | 23 | 20 | >10 | 0.038 | 0.02125
Cc1cc(N2C(=O)c3cc[nH]c3C2c2ccc(Cl)cc2)cn2c(C)nnc12 (stereo not drawn) [Example 21, 6-(4-chlorophenyl)-5-(3,8-dimethyl-[1,2,4]triazolo[4,3-a]pyridin-6-yl)-5,6-dihydropyrrolo[3,4-b]pyrrol-4(1H)-one] | 246 | 5.1 | 47 | 63.3 | 45.2 | 82 | 53 | >10 | 0.178 | 0.08105
CCOC(=O)n1ccc2c1C(c1ccc(Cl)cc1)N(c1cc(C)c3nnc(C)n3c1)C2=O (stereo not drawn) [Example 22, Ethyl 6-(4-chlorophenyl)-5-(3,8-dimethyl-[1,2,4]triazolo[4,3-a]pyridin-6-yl)-4-oxo-5,6-dihydropyrrolo[3,4-b]pyrrole-1(4H)-carboxylate] | 226 | 12.5 | 25 | 60.1 | 46.8 | 38 | 26 | >10 | 0.13 | 0.08615
CNC(=O)n1ccc2c1C(c1ccc(Cl)cc1)N(c1cc(C)c3nnc(C)n3c1)C2=O (stereo not drawn) [Example 23, 6-(4-chlorophenyl)-5-(3,8-dimethyl-[1,2,4]triazolo[4,3-a]pyridin-6-yl)-N-methyl-4-oxo-5,6-dihydropyrrolo[3,4-b]pyrrole-1(4H)-carboxamide] | 206 | 4.2 | 52 | 39.2 | 29 | 85 | 39 | >10 | 0.1017 | 0.0547
Cc1cc(N2C(=O)c3ccn(C(=O)N(C)C)c3C2c2ccc(Cl)cc2)cn2c(C)nnc12 (stereo not drawn) [Example 24, 6-(4-chlorophenyl)-5-(3,8-dimethyl-[1,2,4]triazolo[4,3-a]pyridin-6-yl)-N,N-dimethyl-4-oxo-5,6-dihydropyrrolo[3,4-b]pyrrole-1(4H)-carboxamide] | 527 | 13.3 | 80 | 96.4 | 92.8 | 220 | 87 | >10 | 0.2675 | 0.152
Cc1cc(N2C(=O)c3cc(-c4cccn(C)c4=O)[nH]c3C2c2ccc(Cl)cc2)cn2c(C)nnc12 (stereo not drawn) [Example 25, 6-(4-chlorophenyl)-5-(3,8-dimethyl-[1,2,4]triazolo[4,3-a]pyridin-6-yl)-2-(1-methyl-2-oxo-1,2-dihydropyridin-3-yl)-5,6-dihydropyrrolo[3,4-b]pyrrol-4(1H)-one] | 156 | 4.4 | 17 | 39.2 | 36.8 | 38 | 23 | >10 | 0.0949 | 0.05815
Cc1cn(C)c2c1C(=O)N(c1cc(C)c3nnn(C)c3c1)C2c1ccc(Cl)cc1 (stereo not drawn) [Example 28, 6-(4-chlorophenyl)-5-(1,4-dimethyl-1H-benzo[d][1,2,3]triazol-6-yl)-1,3-dimethyl-5,6-dihydropyrrolo[3,4-b]pyrrol-4(1H)-one] | 55.6 | 1.9 | 16 | 19.2 | 12.8 | 20 | 21 | >10 | 0.03815 | 0.02635

Further compounds by falling GI50 [1], results first:

GI50 [1] [nM] | IC50 [2] [µM] | IC50 [3] [nM] | GI50 [4] [nM] | GI50 [5] [nM] | IC50 [6] [nM] | IC50 [7] [nM] | Structure (SMILES) | K-562 TGI [1] [µM] | THP-1 TGI [4] [µM] | MV-4-11 TGI [5] [µM]
839 | 4 | 60 | 136 | 70 | 78 | 52 | Cc1cc(N2C(=O)c3cc(-c4cccnc4O)[nH]c3C2c2ccc(Cl)cc2)cn2c(C)nnc12 (stereo not drawn) [Example 26, 6-(4-chlorophenyl)-5-(3,8-dimethyl-[1,2,4]triazolo[4,3-a]pyridin-6-yl)-2-(2-hydroxypyridin-3-yl)-5,6-dihydropyrrolo[3,4-b]pyrrol-4(1H)-one] | >10 | 0.34 | 0.1185
230 | 4.1 | < 11 | 43.3 | 11.1 | < 11 | < 11 | CC(=O)N1CC(n2cc(C3CC3)c3c2C(c2ccc(Cl)cc2)N(c2cc(C)c4nnc(C)n4c2)C3=O)C1 (stereo not drawn) [Example 17, 1-(1-acetylazetidin-3-yl)-6-(4-chlorophenyl)-3-cyclopropyl-5-(3,8-dimethyl-[1,2,4]triazolo[4,3-a]pyridin-6-yl)-5,6-dihydropyrrolo[3,4-b]pyrrol-4(1H)-one] | >10 | 0.168 | 0.03485
115 | 6.6 | 22 | 35.6 | 14.6 | 23 | 25 | Cc1cn(CCO)c2c1C(=O)N(c1cc(C)c3nnc(C)n3c1)C2c1ccc(Cl)cc1 (stereo not drawn) [Example 14, 6-(4-chlorophenyl)-5-(3,8-dimethyl-[1,2,4]triazolo[4,3-a]pyridin-6-yl)-1-(2-hydroxyethyl)-3-methyl-5,6-dihydropyrrolo[3,4-b]pyrrol-4(1H)-one] | >10 | 0.08155 | 0.03085
73.6 | 13.7 | 62 | 17.6 | 12.7 | 71 | 67 | COCCn1cc(C)c2c1C(c1ccc(Cl)cc1)N(c1cc(C)c3nnc(C)n3c1)C2=O (stereo not drawn) [Example 13, 6-(4-chlorophenyl)-5-(3,8-dimethyl-[1,2,4]triazolo[4,3-a]pyridin-6-yl)-1-(2-methoxyethyl)-3-methyl-5,6-dihydropyrrolo[3,4-b]pyrrol-4(1H)-one] | >10 | 0.0389 | 0.02485
45.2 | 5 | 14 | 11.7 | 3.81 | 14 | 19 | Cc1cc(N2C(=O)c3c(C4CC4)cn(C4CN(C)C4)c3C2c2ccc(Cl)cc2)cn2c(C)nnc12 (stereo not drawn) [Example 16, 6-(4-chlorophenyl)-3-cyclopropyl-5-(3,8-dimethyl-[1,2,4]triazolo[4,3-a]pyridin-6-yl)-1-(1-methylazetidin-3-yl)-5,6-dihydropyrrolo[3,4-b]pyrrol-4(1H)-one] | >10 | 0.0355 | 0.0124
